4 compounds from US4906612A (priority 1988, dated 1990) can be followed below.

One may read the LD50 as the dose expected to kill half of the subjects tested. High values mean a less toxic substance, low ones a more toxic substance. What is called MIC is the lowest concentration that inhibits growth of the organism. Higher therefore signals a less susceptible organism.

Values after ≈ are worked out from the molar mass of the structure shown. Where two headings read alike, the source gives them in different places. Some results are limits rather than exact numbers.

The nature of data set [1]: LD50 when intravenously injected in male mice. The class given is in vivo. The source says:
The growth-promoting agent of the present invention not only promotes the growth of animals, but also improves feed utilization efficiency. The agent is also effective for the treatment of bacterial diseases.

Data set [2] can be described thus: Growth promoting effect on chicks, 20 ppm in feed for 13 days (Table 3). The class given is in vivo. To be noted: for Feed efficiency, 10 days / Feed efficiency, 13 days / Body weight gain ± standard error, 13 days / Body weight gain ± standard error, 10 days: 20 ppm in feed; for Feed efficiency, 10 days / Body weight gain comparative index, 10 days: 10th day; for Feed efficiency, 10 days: no antibiotic group 1.69; for Feed efficiency, 13 days / Body weight gain comparative index, 13 days: 13th day; for Feed efficiency, 13 days: no antibiotic group 1.76; for Body weight gain ± standard error, 13 days: chicks 8-21 days of age, measured on the 13th day; for Body weight gain ± standard error, 10 days: chicks from 8 days of age, measured on the 10th day; for Body weight gain comparative index, 10 days / Body weight gain comparative index, 13 days: weight gain of the control group regarded as 100. As to the method:
In the same manner, another growth promoting tests were conducted on des-(4-epi-vancosaminyl)PA-42867-A and des-(4-epi-vancosaminyl-0-glucosyl)PA-42867-A by giving 20 ppm of the test drug to chicks of 8-21 days of age for 13 days, using Thiopeptin as a control.
The newly hatched chicks were fed until eight days of age with a feed mash (crude protein content (CP):23%) without addition of any antibiotic by means of the flat feeding. Then, the chicks were divided into four groups each containing 24 chicks (males and females, 12 each). Each group was placed in four cages after dividing into four unisexual sub-groups, each consisting of 6-7 chicks, and raised for 13 days with an animal feed of CP 18% with or without antibiotics. Thus, each of four groups received 20 ppm of des-(4-epi-vancosaminyl)PA-42867-A, 20 ppm of des(4-epi-vancosaminyl-0-glucosyl)PA-42867-A, 20 ppm of Thiopeptin, and no antibiotic, respectively.
Body weight gain and feed efficiency were measured on the 10th and the 13th day.

In data set [3] the test system is Cl. perfringens. The class given is cell-based, Clostridium perfringens. The note with it: GAM agar, 24 hours at 37° C.
Data set [4] can be described thus: Growth promoting effect on chicks, 20 ppm in feed for 10 days (Table 2). To be noted: for Body weight gain, mean value ± standard error: chicks 8 to 18 days of age, 20 ppm in feed × 10 days; for Feed efficiency: chicks, no antibiotic group 1.70; for Body weight gain index: no antibiotic group = 100.0. The class given is in vivo. Here is the method:
Growth promoting effect of PA-42867-A on chicks (8 days of age, Abaeker species) was determined using a known antibiotic, Thiopeptin, as a control. PA-42867-A and Thiopeptin were added to an antibiotic-free feed mash (crude protein content (CP): 18%) at a concentration of 20 ppm, and the chicks were raised for 10 days with the resulting feed according to the battery method. Specifically describing the method of experiment, newly hatched chicks were fed until 8 days of age with a feed ration of 23% CP by the flat feeding method, at which time the chicks were divided into three groups each containing 25-26 chicks (males and females, 12-13 chicks each) so that the average weights of the chicks in all groups were nearly the same. PA-42867-A group received 20 ppm of the antibiotic a day for 10 days, Thiopeptin group received 20 ppm for 10 days, and the control group received antibiotic-free feed of 18% CP for 10 days. The above feeding was conducted after dividing the chicks in each of these groups into sub-groups of 6-7 chicks and putting each sub-group in a cage (435×600×410 mm). The feeding was conducted for 10 days (until 18 days of age) at an environmental temperature of 26°±2°C. The effectiveness of the drug was evaluated based on the body weight gain and the feed efficiency observed during the 10 days period of the experiment.

As for `CNC(CC(C)C)C(=O)NC1C(=O)NC(CC(N)=O)C(=O)NC2C(=O)NC3C(=O)NC(C(=O)NC(C(=O)O)c4cc(O)cc(O)c4-c4cc3ccc4O)C(OC3CC(C)(N)C(O)C(C)O3)c3ccc(c(Cl)c3)Oc3cc2cc(c3OC2OC(CO)C(O)C(O)C2O)Oc2ccc(cc2)C1O` (stereo not drawn) [Compound 2, des-(4-epi-vancosaminyl) PA-42867-A], the LD50 in data set [1] is reported as over 3000 mg/kg. In addition, the “Feed efficiency, 10 days” value in data set [2] is 1.62. Also, the “Feed efficiency, 13 days” value in data set [2] is 1.66. Moreover, the “Body weight gain ± standard error, 13 days” value in data set [2] was found to be 447.4 ± 11.5 g. Moreover, in data set [2], the “Body weight gain ± standard error, 10 days” value turned out to be 324.6 ± 8.3 g. Moreover, in data set [2], the “Body weight gain comparative index, 10 days” value was 104.0. The “Body weight gain comparative index, 13 days” value in data set [2] came to 105.0. For the same compound, the MIC in data set [3] (strain 3C-01, origin chicken) came to 1.56 µg/mL (≈ 1.1 µM); in data set [3] (strain 6B-10, origin cow) it was 1.56 µg/mL (≈ 1.1 µM); in data set [3] (strain 9C-02, origin chicken), 1.56 µg/mL (≈ 1.1 µM); in data set [3] (strain 02441, origin chicken), 1.56 µg/mL (≈ 1.1 µM); in data set [3] (strain CW-1970, origin cow), 1.56 µg/mL (≈ 1.1 µM); in data set [3] (strain FC 2208/75, origin cow) it was 1.56 µg/mL (≈ 1.1 µM). For the same compound, the MIC in data set [3] (strain NCTC-8239, origin cow) was 1.56 µg/mL (≈ 1.1 µM); in data set [3] (strain NCTC-8798, origin cow) it was 1.56 µg/mL (≈ 1.1 µM); in data set [3] (strain NCTC-10239, origin cow) it was 1.56 µg/mL (≈ 1.1 µM); in data set [3] (strain S-79, origin cow), 0.78 µg/mL (≈ 0.551 µM); in data set [3] (strain SP07, origin chicken), 1.56 µg/mL (≈ 1.1 µM).

Take Thiopeptin [reference compound]: in data set [2], the “Feed efficiency, 10 days” value was determined as 1.61; the “Feed efficiency, 13 days” value is recorded as 1.70; the “Body weight gain ± standard error, 13 days” value was determined as 445.5 ± 11.1 g; the “Body weight gain ± standard error, 10 days” value is listed as 319.5 ± 7.5 g. Further, in data set [2], the “Body weight gain comparative index, 10 days” value was 102.4 and the “Body weight gain comparative index, 13 days” value is 104.6. In data set [4] (20 ppm × 10 days), the “Feed efficiency compared with the group raised with antibiotic-free feed (in words)” value is recorded as “better results in feed efficiency”, the Feed efficiency worked out at 1.58 and the “Body weight gain index” value worked out at 103.9. Further, the “Body weight gain, mean value ± standard error” value in data set [4] is on record as 313.7 ± 8.80 g.

For `CNC(CC(C)C)C(=O)NC1C(=O)NC(CC(N)=O)C(=O)NC2C(=O)NC3C(=O)NC(C(=O)NC(C(=O)O)c4cc(O)cc(O)c4-c4cc3ccc4O)C(OC3CC(C)(N)C(O)C(C)O3)c3ccc(c(Cl)c3)Oc3cc2cc(c3O)Oc2ccc(cc2)C1O` (stereo not drawn) [Compound 3, des-(4-epi-vancosaminyl-0-glucosyl)PA-42867-A], the 50% lethal dose (LD50) in data set [1] is listed as 205 mg/kg. The minimal inhibitory concentration (MIC) in data set [3] (strain 3C-01, origin chicken) came to 0.78 µg/mL (≈ 0.623 µM); in data set [3] (strain 6B-10, origin cow) it was 0.78 µg/mL (≈ 0.623 µM); in data set [3] (strain 9C-02, origin chicken) it was 0.78 µg/mL (≈ 0.623 µM); in data set [3] (strain 02441, origin chicken), 0.78 µg/mL (≈ 0.623 µM); in data set [3] (strain CW-1970, origin cow) it was 0.78 µg/mL (≈ 0.623 µM); in data set [3] (strain FC 2208/75, origin cow), 0.78 µg/mL (≈ 0.623 µM). The minimal inhibitory concentration (MIC) in data set [3] (strain NCTC-8239, origin cow) amounted to 0.78 µg/mL (≈ 0.623 µM); in data set [3] (strain NCTC-8798, origin cow), 0.78 µg/mL (≈ 0.623 µM); in data set [3] (strain NCTC-10239, origin cow), 0.78 µg/mL (≈ 0.623 µM); in data set [3] (strain S-79, origin cow), 0.39 µg/mL (≈ 0.311 µM); in data set [3] (strain SP07, origin chicken), 0.78 µg/mL (≈ 0.623 µM).

`CNC(CC(C)C)C(=O)NC1C(=O)NC(CC(N)=O)C(=O)NC2C(=O)NC3C(=O)NC(C(=O)NC(C(=O)O)c4cc(O)cc(O)c4-c4cc3ccc4O)C(OC3CC(C)(N)C(O)C(C)O3)c3ccc(c(Cl)c3)Oc3cc2cc(c3OC2OC(CO)C(O)C(O)C2OC2CC(C)(N)C(O)C(C)O2)Oc2ccc(cc2)C1O` (stereo not drawn) [Compound 1, PA-42867-A] had a median lethal dose (LD50) in data set [1] of 1955 mg/kg. The “Feed efficiency, 10 days” value in data set [2] is on record as 1.54. Also, the “Feed efficiency, 13 days” value in data set [2] worked out at 1.66. In addition, the “Body weight gain ± standard error, 13 days” value in data set [2] was 442.6 ± 7.8 g. The “Body weight gain ± standard error, 10 days” value in data set [2] came out at 328.9 ± 6.3 g. Further, the “Body weight gain comparative index, 10 days” value in data set [2] is 105.4. Also, in data set [2], the “Body weight gain comparative index, 13 days” value is listed as 103.9. The MIC came out at 0.39 µg/mL (≈ 0.25 µM) in data set [3] (strain 3C-01, origin chicken); 0.2 µg/mL (≈ 0.128 µM) in data set [3] (strain 6B-10, origin cow); 0.2 µg/mL (≈ 0.128 µM) in data set [3] (strain 9C-02, origin chicken); 0.39 µg/mL (≈ 0.25 µM) in data set [3] (strain 02441, origin chicken); 0.39 µg/mL (≈ 0.25 µM) in data set [3] (strain CW-1970, origin cow); 0.39 µg/mL (≈ 0.25 µM) in data set [3] (strain FC 2208/75, origin cow). The minimal inhibitory concentration (MIC) was determined as 0.39 µg/mL (≈ 0.25 µM) in data set [3] (strain NCTC-8239, origin cow); 0.39 µg/mL (≈ 0.25 µM) in data set [3] (strain NCTC-8798, origin cow); 0.39 µg/mL (≈ 0.25 µM) in data set [3] (strain NCTC-10239, origin cow); 0.39 µg/mL (≈ 0.25 µM) in data set [3] (strain S-79, origin cow); 0.39 µg/mL (≈ 0.25 µM) in data set [3] (strain SP07, origin chicken). Also, the “Feed efficiency compared with the group raised with antibiotic-free feed (in words)” value in data set [4] (20 ppm × 10 days) is given as “better results in feed efficiency”. For the same compound, in data set [4] (20 ppm × 10 days, p<0.01), the “Body weight gain compared with the no-antibiotic control group and the Thiopeptin group (in words)” value is listed as “significantly high body weight gain”. Moreover, in data set [4], the “Body weight gain, mean value ± standard error” value is recorded as 332.0 ± 6.71 g. The compound also showed a Feed efficiency in data set [4] (20 ppm × 10 days) of 1.53. Also, the “Body weight gain index” value in data set [4] (20 ppm × 10 days) turned out to be 110.0.
